# Experimental data published in EP0719267B1, “SECOND MESSENGER CELL SIGNALING INHIBITORS” (CELL THERAPEUTICS, INC., priority 1993, dated 1994).
# “Also recorded” adds a separate entry of the source.
# How the values were obtained:
# [1] = system: anti-CD3-stimulated mouse splenocytes; assay: Cytokine release from anti-CD3-stimulated splenocytes (ELISA); type: cell-based; settings: 1 µM, overnight
# Procedure: Figures 59A, 59B and 59C report assay results investigating the effect of inventive compound no. 45 on cytokine release from anti-CD3-stimulated mouse splenocytes. […] 45 (1 µM). Concentrations chosen were approximately equal to IC50 values. The supernatants were harvested and assayed for cytokine levels using commercial ELISAs for proliferation. Anti-CD3 stimulated release of IL-2, IFN-γ and IL-4 (background levels for media control were negligible). […] However, compound no. […] Compound no.
# [2] = system: C57BL/6 splenocytes; assay: Antigen specific anergy induction (splenocytes with 2PK3 B cell tumor, restimulation); type: cell-based, murine
# Procedure: A B cell tumor, 2PK3 (H-2d) was used as a stimulating cell for C57BL/6 splenocytes (H-2b), a responding cell. Mixed cultures of B-cell tumor and splenocytes were incubated for 5 days with and without 1 µM of compound no. 45. After 5 days, the cells were washed and resuspended with either media, the original antigen (2PK3) or anti-CD3. Tritiated thymidine was added to the resulting suspensions and thymidine incorporation measured 24 hours later. As illustrated, culture treated with inventive compound no. […] However, cultures incubated with inventive compound no. […] Thus, C57BL/6 splenocytes were inhibited from responding to an original antigen by the inventive compound used in the pre-incubation step.
# As shown in figures 56A and 56B, inventive compound no. 45 also induces antigen specific T-cell anergy. Procedurally, murine splenocytes were stimulated with an alloantigen target cell line 2PK3 in the presence or absence of compound no. 45 (1 µM; approximate IC50). Following 5 days in culture, the cells were washed, re-cultured and restimulated with the original priming antigen and anti-CD3 monoclonal antibody. […] 45 during the five day primary culture. […] Although cells pretreated with inventive compound no. 45 could respond normally to polyclonal stimulation, those that were challenged with the alloantigen could not. Therefore, compound no. 45 induced a specific state of unresponsiveness or anergy to the alloantigen.
# [3] = system: murine mixed tumor lymophocyte culture (MTLC); assay: Mixed tumor lymphocyte culture (MTLC), splenocytes with 2PK3; type: cell-based
# Procedure: Figures 50A and 50B illustrate that compound no. 45 inhibits a murine mixed tumor lymophocyte culture (MTLC) and a human mixed leukocyte reaction (MLR). In the MTLC, splenocytes were stimulated (co-culture) with an alloantigen, B cell tumor target cell line (2PK3) in the presence or absence of compound no. 45. Cells were stimulated for 3 days, ^3H-TdR was added and the cells were harvested 4 hours later. Incorporation of ^3H-TdR was determined by liquid scintillation. Background counts were 1000-1200 CPM. For the human MLR, purified peripheral lymphocytes from two HLA disparate individuals were co-cultured for 6 days with or without compound no. 45. On the 7th day the cultures were pulsed with ^3HTdR for 24 hours and counted by scintillation.
# In an assay related to the MTLC assay, cytokines levels were measured by ELISA from the supernatants of an MTLC culture. […] 45. Figures 60B and 60C illustrate that compound no.
# [4] = system: IL-2 receptor beta (p70) subunit; assay: IL-2 receptor beta subunit internalization in CT-6.1 cells (flow cytometry); type: cell-based, murine; settings: 20 ng/ml IL-2
# Procedure: In figure 55, inventive compound no. […] In this assay protocol, CT-6.1 cells were starved overnight and stimulated with 20 ng/ml IL-2. At various times following IL-2 stimulation, cells were rapidly suspended in ice cold PBS and stained using a fluoresceinated monoclonal recognizing the beta subunit of the IL-2 receptor and cell surface expression analyzed by flow cytometry. Figure 55 is a plot of mean fluorescence versus time (in minutes) following IL-2 addition, illustrating that IL-2r beta subunit was rapidly internalized following IL-2 addition with cell surface expression remaining low for 6 hours. Inventive compound no.
# [5] = system: human smooth muscle cells (SMC); assay: Chemotaxis of smooth muscle cells to PDGF (Boyden chamber); type: cell-based; settings: eight hours
# Procedure: Figure 71 illustrates that inventive compound no. […] In the assay, cells were seeded in a Boyden chamber with or without various concentrations of inventive compound no. 58. Eight hours later, the number of cells that had migrated were scored visually. Inventive compound no.
# [6] = system: human aortic smooth muscle cells (aortic SMC); assay: Growth factor-induced proliferation of aortic smooth muscle cells; type: cell-based; settings: 5 µM
# Procedure: 58. One assay was used for investigating effects on PDGF-induced proliferation of human aortic smooth muscle cells (aortic SMC). Cells, purchased from a commercial supplier (Cell Systems, Inc., Seattle, WA), were cultured with various concentrations of PDGF-BB with and without addition of compound no. 58 (5 µM). […] 58 inhibited PDGF-induced proliferation even at high PDGF concentrations providing maximum proliferative stimulation. In addition, some cultures were treated 1 hour prior to PDGF stimulation with inventive compound no. 58. As shown, PDGF stimulated proliferation in this cell line. Addition of 5 µM of compound no. […] 58 were observed.
# Another assay was used for investigating inhibitory effects of inventive compound no. 58 on either basic or acidic FGF-induced proliferation in human aortic smooth muscle cells (aortic SMC). Disregulated bFGF- or aFGF-induced proliferation is linked to SMC proliferation and neointimal occlusion in atherogenesis and restenosis and plays a role in autocrine and paracrine stimulation of tumor cells and tumor cell-induced angiogenesis. In this assay, cells were grown in reduced serum (0.5% fetal calf serum) for 24 hours prior to stimulating with various concentrations of […]. Cells were stimulated with various concentrations overnight of either aFGF or bFGF, adding 5µM of compound no. 58 in selected cultures. Compound no. […] Results shown in figure 20A (aFGF) and figure 20B (bFGF) illustrate the degree of inhibition.
# (§1) Figures 65A-65F illustrate inhibition of proliferation in either human aortic or pulmonary smooth muscle cells (SMC) by inventive compound no. 58. Procedurally, cells were cultured in 0.5% serum containing medium 24 hours prior to stimulation with various concentrations of either PDGF (figs. 65A and 65B), acidic FGF (figs. 65C and 65D) or basic FGF (figs. 65E and 65F). Cells were stimulated for 24 hours prior to labeling with ^3H-TdR for 4 hours and harvested and counted by scintillation. Compound no. 58 was added 1 hour prior to stimulation at a concentration of 5 µM. Even at points of maximum stimulation of the growth factors, compound no. […] In addition cell number was assessed and those treated with compound no.
# [7] = system: human pulmonary smooth muscle cells; assay: Growth factor-induced proliferation of pulmonary smooth muscle cells; type: cell-based; settings: 5 µM
# Procedure: 58 on either aFGF or bFGF-induced proliferation in human pulmonary smooth muscle cells. Cells were grown in reduced serum (0.5% fetal calf serum) for 24 hours prior to stimulating with various concentrations of […]. Cells, stimulated with either aFGF or bFGF, were analyzed in the presence and absence of compound no. 58 (5 µM). Assay results are reported in figures 25A and 25B (aFGF and bFGF, respectively). As shown in the results, compound no.
# as §1
"IC50 ([2]; Mus musculus, Splenocyte, alloantigen target cell line 2PK3, read-out: approximate IC50)","IC50 ([3]; Mus musculus, 72 h, 3 days)",SMILES,IFN-γ release [1],IL-2 release [1],IL-4 release [1],response to anti-CD3 after 5 days culture with compound ([2]; 1 µM),response to original/priming antigen 2PK3 after 5 days culture with compound ([2]; 1 µM),IFN-γ release ([3]; ELISA of supernatants),IL-2 or TNFα release ([3]; ELISA of supernatants),overall proliferation ([3]; fig. 60A),IL-2 receptor beta subunit internalization [4],PDGF-directed chemotaxis [5],inhibition of PDGF-induced proliferation [6],inhibition of aFGF- and bFGF-induced proliferation [6],toxic effects [6],"inhibition of proliferation at maximum stimulation by PDGF, acidic FGF or basic FGF ([6]; added 1 hour prior)",cell number following growth factor stimulation ([6]; aortic and pulmonary SMC),inhibition of aFGF and bFGF-induced proliferation [7],toxic effect [7],"inhibition of proliferation at maximum stimulation by PDGF, acidic FGF or basic FGF ([7]; added 1 hour prior)"
~1000 nM,~500 nM,CCCCCCCCNCC(O)CCCCCCCCCn1c(=O)c2c(ncn2C)n(C)c1=O (centres unmarked) [compound no. 45],drastically inhibited IFN-γ release,did not significantly inhibit IL-2 release,only partially inhibits IL-4 release,responded equivilantly to anti-CD3; also recorded: polyclonal T-cell response to anti-CD3 was not affected,"decreased response to primary antigen, 2PK3; also recorded: secondary response to the priming antigen was inhibited",inhibited IFN-γ release,did not inhibit either IL-2 or TNFα release from the MTLC,inhibition of overall proliferation,did not inhibit this receptor internalization activity,–,–,–,–,–,–,–,–,–
–,–,"COc1cc(CNCC(O)CCCCCCCCCn2c(=O)c3c(ncn3C)n(C)c2=O)cc(OC)c1OC (centres unmarked) [compound no. 58, 1-[11-(3,4,5-Trimethoxybenzylamino)-10-hydroxyundecyl]-3,7-dimethylxanthine]",–,–,–,–,–,–,–,–,–,had no effect on PDGF-directed SMC chemotaxis,blocked PDGF-stimulated proliferation,a potent inhibitor of both aFGF- and bFGF-induced proliferation,No toxic effects,completely inhibited cellular proliferation in both aortic and pulmonary SMC,showed no increase in cell number following growth factor stimulation,a potent inhibitor of both aFGF and bFGF-induced proliferation,No toxic effect,completely inhibited cellular proliferation in both aortic and pulmonary SMC
